Source: patent US20220378923A1, “BET DEGRADER” (KYOWA KIRIN CO., LTD., priority 2019, published 2022)

Key:
Format in all cases: cell-based
Settings in all cases: SU-DHL-4 cells, test compound 100 nmol/L, 24 hours
[1] = target: T1, BRD3 (Homo sapiens, UniProt Q15059); assay: Evaluation of BET proteolysis in SU-DHL-4 cell line by Western blotting: BRD3 (Test Example 4)
T1 construct: Changes in the amount of BRD4, BRD2 and BRD3 proteins in the SU-DHL-4 cell line; endogenous in cells; host or cells: SU-DHL-4
Procedure: (§1) The human DLBCL cell line SU-DHL-4 was purchased from DSMZ. SU-DHL-4 was passaged using RPMI1640 medium containing 10 vol % FBS. The culture conditions were 37° C. and 5% CO2.
Anti-BRD3 antibody: Anti-BRD3 antibody (2088C3a) (Santa Cruz Biotechnology, Cat No. sc-81202)
(§2) Changes in the amount of BRD4, BRD2 and BRD3 proteins in the SU-DHL-4 cell line by the test compound (compound 1b, compound 1l or compound P3) were detected by WB. The compound P3 is a compound described as example 14 in the known Patent Document 2 (WO 2015/081284), which was synthesized according to the method described in Patent Document 2 and used in this test.
(§3) The cultured SU-DHL-4 cells were seeded at 6×10^5 cells/well in a transparent 6-well plate (Code No. 140675, Thermo Fisher Scientific). After seeding, the cells were pre-cultured at 37° C. in a carbon dioxide gas incubator for 18 to 25 hours. Next, a 0.1 mmol/L DMSO solution of the test compound was prepared, diluted so that the concentration was 200-fold of the final concentration in RPMI1640 medium containing the above FBS and PS, and 1/200 volume of the diluted solution was added to each well. At this time, the final concentration of DMSO was adjusted to be 0.1 vol %. After adding the test compound, the cells were cultured at 37° C. in a carbon dioxide gas incubator for 24 hours.
(§4) After collecting the cells, the supernatant was aspirated, and Lysis buffer 6 (R&D systems, Cat No. 895561) was added to the pellet at 0.1 mL/sample. After incubating on ice for 60 minutes, the supernatant was collected by centrifugation at 15000 rpm for 10 minutes at 4° C.
(§5) Using Pierce BCA Protein Assay Kit (Thermo Fisher, Cat No. 23225), the protein concentration of each sample was quantified according to the manual attached to the kit, and then was diluted and prepared with Lane Marker Reducing Sample Buffer (5×) (Thermo Fisher, Cat No. 39000) and Lysis buffer 6 to 1 mg/mL. The cells were incubated at 95° C. for 5 minutes to prepare WB samples. WB samples were stored at −30° C. until electrophoresis.
(§6) The WB sample was thawed and used after vortex mixing and spin down. […]

[2] = target: T2, BRD2 (Homo sapiens, UniProt P25440); assay: Evaluation of BET proteolysis in SU-DHL-4 cell line by Western blotting: BRD2 (Test Example 4)
T2 construct: Changes in the amount of BRD4, BRD2 and BRD3 proteins in the SU-DHL-4 cell line; endogenous in cells; host or cells: SU-DHL-4
Procedure: as §1
Anti-BRD2 antibody: Brd2 (D8964) Rabbit mAb (Cell Signaling Technology, Cat No. #5848S)
as §2, §3, §4, §5, §6

[3] = target: T3, BRD4 (Homo sapiens, UniProt O60885); assay: Evaluation of BET proteolysis in SU-DHL-4 cell line by Western blotting: BRD4 (Test Example 4)
T3 construct: Changes in the amount of BRD4, BRD2 and BRD3 proteins in the SU-DHL-4 cell line; endogenous in cells; host or cells: SU-DHL-4
Procedure: as §1
Anti-BRD4 antibody: BRD4 (E2A7X) Rabbit mAb (Cell Signaling Technology, Cat No. #13440S)
as §2, §3, §4, §5, §6

T2 sequence (P25440 whole entry): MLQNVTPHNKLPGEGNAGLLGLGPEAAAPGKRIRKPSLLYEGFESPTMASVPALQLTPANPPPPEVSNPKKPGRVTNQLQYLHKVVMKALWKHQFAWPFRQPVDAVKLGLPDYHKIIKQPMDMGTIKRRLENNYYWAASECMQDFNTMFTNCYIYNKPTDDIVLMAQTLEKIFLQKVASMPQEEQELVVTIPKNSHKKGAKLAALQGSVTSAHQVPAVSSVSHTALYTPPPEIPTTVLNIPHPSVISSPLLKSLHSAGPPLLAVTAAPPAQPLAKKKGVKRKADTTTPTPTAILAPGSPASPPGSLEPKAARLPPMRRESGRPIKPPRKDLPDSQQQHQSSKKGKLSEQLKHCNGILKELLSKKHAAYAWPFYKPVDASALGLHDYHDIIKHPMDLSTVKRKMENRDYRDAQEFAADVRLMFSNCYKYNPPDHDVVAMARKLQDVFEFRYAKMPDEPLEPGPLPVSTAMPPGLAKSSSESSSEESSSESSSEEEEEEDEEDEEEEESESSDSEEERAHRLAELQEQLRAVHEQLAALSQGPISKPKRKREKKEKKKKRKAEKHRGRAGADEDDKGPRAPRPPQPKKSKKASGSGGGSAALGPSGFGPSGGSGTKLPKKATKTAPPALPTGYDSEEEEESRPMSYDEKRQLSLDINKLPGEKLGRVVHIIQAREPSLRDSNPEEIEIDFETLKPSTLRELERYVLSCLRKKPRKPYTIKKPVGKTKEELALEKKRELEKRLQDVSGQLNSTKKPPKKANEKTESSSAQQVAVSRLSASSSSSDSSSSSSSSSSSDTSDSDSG
T1 sequence (Q15059 whole entry): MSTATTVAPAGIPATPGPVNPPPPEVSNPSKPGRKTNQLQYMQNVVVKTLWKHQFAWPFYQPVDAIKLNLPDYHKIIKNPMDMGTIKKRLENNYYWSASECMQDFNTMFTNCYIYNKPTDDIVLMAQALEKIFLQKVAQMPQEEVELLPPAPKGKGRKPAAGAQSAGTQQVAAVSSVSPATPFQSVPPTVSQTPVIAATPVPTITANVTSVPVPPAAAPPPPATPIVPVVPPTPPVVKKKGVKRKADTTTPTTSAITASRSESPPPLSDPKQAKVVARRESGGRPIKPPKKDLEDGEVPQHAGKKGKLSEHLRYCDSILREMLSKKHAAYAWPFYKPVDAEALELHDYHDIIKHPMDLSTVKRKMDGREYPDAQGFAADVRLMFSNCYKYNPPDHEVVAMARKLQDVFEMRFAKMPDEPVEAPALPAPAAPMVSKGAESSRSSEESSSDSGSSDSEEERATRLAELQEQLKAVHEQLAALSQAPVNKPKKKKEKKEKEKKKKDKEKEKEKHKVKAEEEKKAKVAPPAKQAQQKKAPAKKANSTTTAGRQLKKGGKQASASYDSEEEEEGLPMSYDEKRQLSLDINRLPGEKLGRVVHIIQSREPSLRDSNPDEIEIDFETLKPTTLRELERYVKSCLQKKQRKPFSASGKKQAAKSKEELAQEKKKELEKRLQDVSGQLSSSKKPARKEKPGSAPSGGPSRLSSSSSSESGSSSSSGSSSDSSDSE

Row | SMILES | change in amount of BRD3 protein (band in Western blotting, FIG. 1) [1] | change in amount of BRD2 protein (band in Western blotting, FIG. 1) [2] | change in amount of BRD4 protein (band in Western blotting, FIG. 1) [3]
1 | Cc1sc2c(c1C)C(c1ccc(C(=O)NCCCNC(=O)c3ccc(C4=N[C@@H](CC(=O)OC(C)(C)C)c5nnc(C)n5-c5sc(C)c(C)c54)cc3)cc1)=N[C@@H](CC(=O)OC(C)(C)C)c1nnc(C)n1-2 [Compound 1b, Di-tert-butyl 2,2′-[(6S,6′S)-({[propane-1,3-diylbis(azanediyl)]bis(carbonyl)}bis(4,1-phenylene))bis(2,3,9-trimethyl-6H-thieno[3,2-f][1,2,4]triazolo[4,3-a][1,4]diazepine-4,6-diyl)]diacetate] | the band became faint compared with that of control | the band became faint compared with that of control | the band became faint compared with that of control
2 | CCC(=O)N1c2ccccc2[C@H](Nc2ccc(C(=O)NCC(=O)CNC(=O)c3ccc(N[C@@H]4C[C@H](C)N(C(=O)CC)c5ccccc54)cc3)cc2)C[C@@H]1C [Compound 1l, N,N′-(2-Oxopropane-1,3-diyl)bis(4-{[(2S,4R)-2-methyl-1-propionyl-1,2,3,4-tetrahydroquinolin-4-yl]amino}benzamide)] | the band became faint compared with that of control | the band became faint compared with that of control | the band became faint compared with that of control
